Laboratory results from patent US8318781B2, “G-protein-conjugated receptor agonist” (Japan Science and Technology Agency, priority 2007, dated 2012).
Read-outs that look alike come from different tables or passages of the source.

Legend:
Format in all cases: cell-based
human GPR120 (hGPR120) [1] = molecular target: T1, human GPR120 (hGPR120) (Homo sapiens, UniProt Q5NUL3); assay: ERK assay, screening for GPR120 ligands in cell line TXGPR120; settings: TXGPR120 cells, class relative to LA;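 for ERK/GPR120 10 μM: signals normalized between DMSO and PMA controls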
T1 construct: expressed in transfected cells; doxycycline-inducible expression vector
T1 sequence (Q5NUL3 1-361): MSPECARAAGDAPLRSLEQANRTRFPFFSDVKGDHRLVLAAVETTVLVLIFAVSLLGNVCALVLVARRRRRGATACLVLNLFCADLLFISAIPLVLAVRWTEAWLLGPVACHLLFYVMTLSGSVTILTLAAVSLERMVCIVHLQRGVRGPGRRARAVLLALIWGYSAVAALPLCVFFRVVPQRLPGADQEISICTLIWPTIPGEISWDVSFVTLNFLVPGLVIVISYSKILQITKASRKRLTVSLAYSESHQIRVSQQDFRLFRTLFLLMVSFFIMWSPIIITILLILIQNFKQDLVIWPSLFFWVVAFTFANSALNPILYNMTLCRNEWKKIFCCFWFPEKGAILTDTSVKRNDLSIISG
Protocol: (§1) This Test 1 was carried out by using the following materials and methods.
(§2) (1) In this test, the cell lines TXGPR40 and TXGPR120 were plated in 35-mm dishes in 5×10^5 cells/per dish.
(§3) Each ligand was dissolved in DMSO, diluted tenfold with the medium to make the total amount of 100 μl. DMSO was used as the negative control, and PMA (phorbol-12-myristate-13-acetate) was used as the positive control.
(§4) (3) The medium was removed from the dish of the cell to reduce the total amount of liquid to 0.9 ml.
(§5) (4) The ligand solution was added dropwise to the cell solution, and dispersed by gently shaking the dish, and allowed to react at room temperature.
(§6) (5) After 5 minutes of reaction, the medium was discarded, and the remaining medium on the dish was removed on ice using an aspirator.
(§7) (6) 150 μl of Lysis buffer (50 mM HEPES (pH 7.0), 150 mM NaCl, 10% glycerol, 1% NonidetP-40, 2 mM MgCl2, 1 mM EDTA, 100 mM NaF, 10 mM sodium phosphate, 1 mM Na3VO4, 20 mM β-glycerophosphate, and Proteinase inhibitor) were added, then the cells were collected using a cell scraper.
(§8) (1) The crude enzyme solution mixed with SDS Sample Buffer was subjected to ultrasonication with a sonifier, then incubated at 90° C. for five minutes.
(§9) (2) The mixture was vortexed and centrifuged at 15,000 rpm for five minutes at 4° C.
(§10) (3) The supernatant of the centrifuged sample was applied to two 7.5% acrylamide gel slabs placed in an electrophoresis tank filled with 1×SDS-PAGE Running Buffer (25 mM Tris, 0.2 M Glycin, and 1% SDS). Electrophoresis was carried out under a constant current of 40 mA for about 80 to 90 minutes.
(§11) (1) A PVDF membrane cut in the same size as the gel slab was immersed in methanol for about 15 seconds and then shaken in Transfer Buffer C solution (25 mM Tris, 0.02% SDS, 2% methanol and 40 mM 6-aminohexanoic acid) at room temperature to swell for 15 minutes. Filter paper for blotting was cut into a 10-cm square.
(§12) (2) On the blotting apparatus were placed sequentially two pieces of filter paper immersed in A solution (0.3 M Tris, 0.02% SDS and 2% methanol), two pieces of filter paper immersed in B solution (25 mM Tris, 0.02% SDS and 2% methanol), and the membrane thereon. The gel slab after electrophoresis, and finally two pieces of filter paper immersed in C solution was placed thereon, and the apparatus was closed.
(§13) (3) The protein was transferred to the membrane at 15 V for 30 minutes.
(§14) (1) The following procedure was all carried out at room temperature. After the protein transfer, the membrane was placed into a vial containing 1×TTBS (0.2 M Tris, 1.5 M NaCl, 0.2% Tween 20) and washed for 15 minutes.
(§15) (2) TTBS was discarded, and about 10 ml of Block Ace was added and blocked on a shaker for one hour.
(§16) (1) The primary antibodies (p44/42 MAP Kinase Antibody and Phospho-p44/42 MAP Kinase Antibody) were each diluted 1000-fold with TTBS.
(§17) (2) After blocking, the Block Ace solution was removed, the solution of the primary antibody was added and allowed to react on the shaker for two hours.
(§18) (1) The secondary antibody (Anti-rabbit Ig, Horseradish Peroxidase linked F(ab′)2 fragments) was diluted 5000-fold with TTBS.
(§19) (2) The primary antibody solution was removed and the membrane was washed three times on the shaker in TTBS for five to ten minutes each.
(§20) (3) TTBS was removed and the solution of secondary antibody was added and left for 1 hour on the shaker.
(§21) (1) 2 ml each of Detection Reagent 1 and Detection Reagent 2 from ECL kit were mixed together on ice.
(§22) (2) The solution of secondary antibody was removed from the membrane reacted with the secondary antibody and then washed three times on the shaker in TTBS for five minutes each.
(§23) (3) The liquid was thoroughly removed from the membrane, which was then placed in a plastic bag, and 2 ml of the Detection Reagent mixture was added per each membrane.
(§24) (4) The membrane was kept in contact with a film in the cassette for one to five minutes, and the film was developed using an automatic developing machine.

human GPR40 (hGPR40) [2] = molecular target: T2, human GPR40 (hGPR40) (Homo sapiens, UniProt O14842); assay: Determination of intracellular Ca2+ concentration (FLIPR), cell line TXGPR40; settings: for [Ca^2+]/GPR40 10 μM (ratio vs. LA): relative fluorescence intensity vs LA at 10 μM, TXGPR40 cells
T2 construct: expressed in transfected cells; doxycycline-inducible expression vector
Protocol: (§25) (1) In this test, The cell lines TXGPR40, TXGPR120 and GPR120/Flp-in were plated onto a collagen-coated black 96-well plate in 2×10^5 cells/well. The 96-well plates containing the cells were centrifuged and treated with Doxycycline (final concentration 10 μg/mL), incubated in a CO2 incubator for 21 hours, then used for assay.
(§26) (2) The ligand used in this test includes NCP04, NCP14, NCG20, NCG21, NCG22, NCG23, NCP02, NCP03, NCP05, NCP06, NCG14, NCG17, NCG19, NCG28, NCG29, NCG30, NCG31, NCG34, NCG35, NCG37, NCG38, NCG44, NCG45, NCG46, and NCG54. Each ligand was dissolved in DMSO and adjusted to the concentration of 10 mM, then diluted with Hanks' Balanced Salt Solution (pH 7.4) containing 20 mM HEPES (referred to as FLIPR buffer hereinafter) to the final concentration of 1 to 100 μM. 1% DMSO was used as the negative control, and LA was used as the positive control.
(§27) The ligands and controls were placed in different 96-well plates from the plates for the cells.
(§28) (3) The 96-well plate containing the cells was removed from the CO2 incubator. A fluorescent dye prepared in a twofold higher concentration (Ca Assay Kit Component A diluted with FLIPR Buffer) was added in 50 μL/well, then allowed to stand in the dark at room temperature for one hour.
(§29) (4) After one hour, the 96-well plate containing the cells and the 96-well plate in which ligands and controls were prepared were set on FLIPR (Fluorometric Imaging Plate Reader) for determination.
(§30) (5) Fluorometry using FLIPR was carried out at a laser output of 1.0 W for five minutes. […] after the start of the determination, the ligand (25 μL) was added dropwise to the cell plate at a rate of 50 μL/sec. The intensity of fluorescence was automatically digitized by the application program installed in the FLIPR from the image taken by the CCD camera (with exposure time of 0.40 sec). The interval of data sampling was one second for the initial one minute after the start of operation, and six seconds for the subsequent four minutes.
(§31) (6) The maximum fluorescence intensity was obtained from the data showing the change in the fluorescence intensity over time observed in each well. The maximum fluorescence intensity was plotted against ligand concentration, and pEC50 was calculated. The ratio of the fluorescence intensity for each ligand to LA at 10 μM was calculated as the relative intensity of each ligand.

human GPR120 (hGPR120) [3] = molecular target: T1, human GPR120 (hGPR120); assay: Determination of intracellular Ca2+ concentration (FLIPR), cell line GPR120/Flp-in; settings: for [Ca^2+]/GPR120/Flp-In 10 μM (ratio vs. LA): relative fluorescence intensity vs LA at 10 μM
Protocol: as §25, §26, §27, §28, §29, §30, §31

human GPR120 (hGPR120) [4] = molecular target: T1, human GPR120 (hGPR120); assay: Determination of intracellular Ca2+ concentration (FLIPR), cell line TXGPR120; settings: for agonistic activity for hGPR120 (in words): cells in which GPR120 has been transgenically expressed; for [Ca^2+]/GPR120 10 μM (ratio vs. LA): relative fluorescence intensity vs LA at 10 μM, TXGPR120 cells
Protocol: as §25, §26, §27, §28, §29, §30, §31

human GPR40 (hGPR40) [5] = molecular target: T2, human GPR40 (hGPR40); assay: ERK assay, screening for GPR40 ligands in cell line TXGPR40; settings: ligand 10 μM, TXGPR40 cells, class relative to LA
Protocol: as §1, §2, §3, §4, §5, §6, §7, §8, §9, §10, §11, §12, §13, §14, §15, §16, §17, §18, §19, §20, §21, §22, §23, §24

[6] = GPR120/Flp-in cells, maximum fluorescence intensity vs ligand concentration, read-out: [Ca^2+]/GPR120/Flp-In pEC50 (converted)

T2 sequence (O14842 whole entry): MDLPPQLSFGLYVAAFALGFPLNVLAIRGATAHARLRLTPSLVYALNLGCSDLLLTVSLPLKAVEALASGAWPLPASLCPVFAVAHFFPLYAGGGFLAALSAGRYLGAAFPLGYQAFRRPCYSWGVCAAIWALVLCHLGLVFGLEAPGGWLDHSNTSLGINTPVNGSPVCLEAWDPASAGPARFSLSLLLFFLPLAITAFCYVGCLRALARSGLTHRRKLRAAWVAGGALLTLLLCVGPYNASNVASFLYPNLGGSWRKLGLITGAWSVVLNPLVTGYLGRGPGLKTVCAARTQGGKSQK

Row | SMILES | ERK/GPR120 10 μM (human GPR120 (hGPR120) [1]; ligand 10 μM) | ERK/GPR120 100 μM (human GPR120 (hGPR120) [1]; ligand 100 μM) | [Ca^2+]/GPR40 10 μM (ratio vs. LA) (human GPR40 (hGPR40) [2]) | EC50 (human GPR120 (hGPR120) [3]; [6]) [µM] | [Ca^2+]/GPR120/Flp-In 10 μM (ratio vs. LA) (human GPR120 (hGPR120) [3]; GPR120/Flp-in cells) | agonistic activity for hGPR120 (in words) (human GPR120 (hGPR120) [4]) | [Ca^2+]/GPR120 10 μM (ratio vs. LA) (human GPR120 (hGPR120) [4]) | agonistic activity for GPR40 (in words) (human GPR40 (hGPR40) [2]; cells in which GPR40 has been transgenically expressed) | selectivity between GPR40 and GPR120 (in words), from Tables 3 and 4 (human GPR120 (hGPR120) [4]; GPR40 versus GPR120, Ca2+ and ERK results) | ERK/GPR40 10 μM (human GPR40 (hGPR40) [5]) | EC50 (human GPR40 (hGPR40) [2]) [µM] | EC50 (human GPR120 (hGPR120) [3]) [µM]
1 | O=C(O)CCCc1ccc(OCCN(c2cccnc2)c2ccccn2)cc1 [NCG45] | + (+ denotes 0 to 100% of LA) | ++ (++ denotes 50 to 100% of LA) | 0.01 | 10 | 0.65 | exhibit a similar effect | 0.01 | – | – | – | – | –
2 | O=C(O)CCc1ccc(NCc2cccc3ncccc23)cc1 [NCG14] | – | – | 1.17 | 14.8 | 0.43 | exhibit a similar effect | 0.00 | showed a specific reactivity | selective agonists for GPR40 | ++ (++ denotes 50 to 100% of LA) | – | –
3 | CCCCN(CCOc1ccc(CCCC(=O)O)cc1)c1ccccn1 [NCG20, 4-{4-[2-(2-butylpyridinylamino)ethoxy]phenyl}butanoic acid] | – | – | – | – | – | – | – | – | – | – | 27.5 | 12.6
